pIC50: −log10 of the molar value.
Tested on: Plasmodium berghei
Test: Luciferase/luciferin-expressing antifolate-resistant parasites were used to infect a culture of HepG2 cells that were pre-incubated with compounds. Infected hepatocytes emit light due to the luciferase reaction. Assay results are presented as the percent inhibition of light emission compared to control. […]
Format: functional
Details: sporozoite; for pIC50: read-out: LUCIFERASE INFECTION ASSAY - IC50; for IC90: read-out: LUCIFERASE INFECTION ASSAY - IC90

## Cc1nc(N2N=C3/C(=C/c4ccc(F)cc4)CCCC3C2c2ccc(F)cc2)sc1C(=O)N(C)C (stereo not given)
  pIC50: < 5.00
  IC90: > 10 µM

## O=C(COC(=O)c1cccnc1Cl)NCCc1ccc(F)cc1
  pIC50: < 5.00
  IC90: > 10 µM

## N#CCC(=O)NN1Cc2ccccc2C1=N
  pIC50: < 5.00
  IC90: > 10 µM

## Cc1cc(C)nc(N/N=C2/CCCC/C2=C\c2ccccc2)n1
  pIC50: < 5.00
  IC90: > 10 µM

## Cc1ccc(C23CC4CC(CC(C(=O)N5CCN(CCc6ccccc6)CC5)(C4)C2)C3)cc1
  pIC50: < 5.00
  IC90: > 10 µM

## O=C(CNc1cccc(S(=O)(=O)N2CCOCC2)c1)N(C1CCCCC1)C1CCS(=O)(=O)C1 (stereo not given)
  pIC50: < 5.00
  IC90: > 10 µM

## Fc1ccc(NC(=S)NN=C2c3ccccc3-c3ccccc32)c(F)c1
  pIC50: < 5.00
  IC90: > 10 µM

## COc1cc(/C=C/C(=O)OCC(=O)Nc2cc(Cl)cc(Cl)c2)cc(OC)c1OC
  pIC50: < 5.00
  IC90: > 10 µM

## CCC(C)(C)c1ccc(Oc2ccc(NC(=O)CN3c4cccc5cccc(c45)S3(=O)=O)cc2)cc1
  pIC50: < 5.00
  IC90: > 10 µM

## CCc1c(C#N)c(SCC(=O)c2cc(C)n(-c3ccccc3)c2C)nc2c1C(=O)CC(C)(C)C2
  pIC50: < 5.00
  IC90: > 10 µM

## Cc1ccc(/N=C/c2cc3ccccc3nc2Sc2ccc(C)cc2)cc1
  pIC50: < 5.00
  IC90: > 10 µM

## O=C(Nc1ccccc1)C1=C(N2CCOCC2)/C(=C/c2ccc(Br)cc2)CC1
  pIC50: < 5.00
  IC90: > 10 µM

## Cc1cc(Br)ccc1NC(=O)CNC(=O)CCC(=O)N1CCC(c2ccccc2)=N1
  pIC50: < 5.00
  IC90: > 10 µM

## CCOc1ccc(C2(O)C(C)N3C(=[N+]2c2ccc(OC)cc2)CCc2ccccc23)cc1 (stereo not given)
  pIC50: < 5.00
  IC90: > 10 µM

## C/C(=N\NC(=O)c1ccc(N/N=C(\C)c2ccccc2Br)cc1)c1ccccc1Br
  pIC50: < 5.00
  IC90: > 10 µM

## N#C/C(=C\c1ccc(OCc2ccccc2)c(OCc2ccccc2)c1)c1nnc2n1CCCCC2
  pIC50: < 5.00
  IC90: > 10 µM

## CCN(C(=O)CSc1nnc(SCC(=O)N(CC)C2CCCCC2)s1)C1CCCCC1
  pIC50: < 5.00
  IC90: > 10 µM

## CCOc1ccc(S(=O)(=O)N2c3ccccc3C(C(N)=O)CC2C)cc1OCC (stereo not given)
  pIC50: < 5.00
  IC90: > 10 µM

## COc1ccc(-c2cc(C(=O)NNC(=S)NC3CC4CCC3C4)[nH]n2)cc1 (stereo not given)
  pIC50: < 5.00
  IC90: > 10 µM

## Cc1c(C2=CCCCC2)c2ccccn2c1C(=O)c1cc2c(C)nn(-c3ccccc3)c2s1
  pIC50: < 5.00
  IC90: > 10 µM

## O=C(Cn1cc(I)c(=O)c(I)c1)OCC(=O)N1CCCc2ccccc21
  pIC50: < 5.00
  IC90: > 10 µM

## O=C(Cn1ncc(Cl)c(Cl)c1=O)NCCC(c1ccccc1)c1ccccc1
  pIC50: 5.27
  IC90: 7.67 µM

## Brc1ccc(/C=N/c2ccccc2N2CCOCC2)cc1
  pIC50: < 5.00
  IC90: > 10 µM

## COc1ccc(C2NC(=O)NC(c3ccccc3)=C2c2nc3ccccc3s2)cc1OCc1ccccc1 (stereo not given)
  pIC50: 5.02
  IC90: > 10 µM

## CN(C)c1nc(N)c2c(N)nc3c(cc(O)n3C(=O)NC34CC5CC(CC(C5)C3)C4)c2c1C#N
  pIC50: 5.25
  IC90: > 10 µM

## CC(C)C(C)NC(=O)CSc1nnc(CC2CCCC2)[nH]1 (stereo not given)
  pIC50: < 5.00
  IC90: > 10 µM

## C=CC/N=c1\scc(-c2ccc(Br)s2)n1/N=C/c1ccccc1[N+](=O)[O-]
  pIC50: < 5.00
  IC90: > 10 µM

## CSc1nc2nc(C)c(CCC(=O)N(CC(F)(F)F)C(C)C3CC3)c(C)n2n1 (stereo not given)
  pIC50: 6.00
  IC90: 1.24 µM

## CCOC(=O)c1ccc(-n2c(C)cc(/C=C(\C#N)c3nc4ccccc4[nH]3)c2C)cc1
  pIC50: < 5.00
  IC90: > 10 µM

## C(=N\c1nc2ccccc2nc1N1CCOCC1)/N1CCN(C(c2ccccc2)c2ccccc2)CC1
  pIC50: < 5.00
  IC90: > 10 µM

## COc1cc2c(cc1NC(=O)C1CCCN(S(=O)(=O)c3ccc(F)cc3)C1)oc1ccccc12 (stereo not given)
  pIC50: < 5.00
  IC90: > 10 µM

## Cc1nn(-c2ccccc2)c(N2CCCCC2)c1/C=N/Nc1ccc(C(F)(F)F)cn1
  pIC50: < 5.00
  IC90: > 10 µM

## Fc1cccc(F)c1/C=N/c1ccccc1N1CCOCC1
  pIC50: < 5.00
  IC90: > 10 µM

## Cc1[nH]c(=S)c(C#N)c2c1C1(C)CCC3C(CC=C4CC(O)CCC43C)C1C2 (stereo not given)
  pIC50: < 5.00
  IC90: > 10 µM

## O=S(=O)(N=C1c2ccccc2/C(=N/S(=O)(=O)c2ccc(Cl)cc2)C2C3C=CC(CC3)C12)c1ccc(Cl)cc1 (stereo not given)
  pIC50: 5.07
  IC90: > 10 µM

## N#CCCn1cc(/C=N/Nc2nc3ccccc3s2)c(-c2ccc(F)cc2)n1
  pIC50: < 5.00
  IC90: > 10 µM

## C=CCNC(=S)N/N=C/C1=C(N2CCOCC2)C(=C/c2ccc(Cl)cc2Cl)/CC1
  pIC50: < 5.00
  IC90: > 10 µM

## O=C1OC(C23CC4CC(CC(C4)C2)C3)=N/C1=C\c1ccc(N2CCOCC2)cc1
  pIC50: < 5.00
  IC90: > 10 µM

## Cc1nn(-c2ccccc2)c(Cl)c1/C=N/N1CCN(c2ccc(Cl)cc2)CC1
  pIC50: < 5.00
  IC90: > 10 µM

## Cc1c(C(=O)N/N=C/c2c3ccccc3c(Cl)c3ccccc23)nc2ccccn12
  pIC50: < 5.00
  IC90: > 10 µM

## CCN(CC)c1ccc2cc(/C=N/NC(=O)C34CC5CC(CC(C5)C3)C4)c(=O)oc2c1
  pIC50: < 5.00
  IC90: > 10 µM

## Cc1[nH]c2ccccc2c1/C=N/N(Cc1ccccc1)c1ccccc1
  pIC50: < 5.00
  IC90: > 10 µM

## O=C(COc1cccc(Br)c1)N/N=C/C1=C(N2CCOCC2)C(=C/c2ccc(Cl)cc2)/CC1
  pIC50: < 5.00
  IC90: > 10 µM

## O=C1OC(C23CC4CC(CC(C4)C2)C3)=N/C1=C\c1ccc(Cl)c([N+](=O)[O-])c1
  pIC50: < 5.00
  IC90: > 10 µM

## CCCCCCCCNC(=O)/C(C#N)=C/c1ccc(C)cc1C
  pIC50: < 5.00
  IC90: > 10 µM

## C/C(=N\Nc1c(Cl)cc(Cl)cc1Cl)c1ccc(N2CCOCC2)cc1
  pIC50: 5.32
  IC90: > 10 µM

## CNC(=S)Nc1ccc(-n2cnc3ccccc32)cc1
  pIC50: < 5.00
  IC90: > 10 µM

## CN1/C(=C\C=N\NC(=O)c2cnccn2)C(C)(C)c2ccccc21
  pIC50: < 5.00
  IC90: > 10 µM

## Cc1cc(C)nc(N/N=C/c2c(C)nn(-c3ccccc3)c2Sc2nc3ccccc3s2)n1
  pIC50: < 5.00
  IC90: > 10 µM

## O=C(O)c1cc(N/N=C(\c2ccncc2)c2ccc([N+](=O)[O-])cc2)cc(C(=O)O)c1
  pIC50: < 5.00
  IC90: > 10 µM

## Cc1ccc(C(=O)c2c3c4sc5ccccc5n4c(-c4ccc(C)cc4)nc-3[n+](-c3ccccc3)c2O)cc1
  pIC50: < 5.00
  IC90: > 10 µM

## CCOC(=O)c1c(C)[nH]c(N=Nc2ccc3c(c2)OCO3)c1C
  pIC50: 5.03
  IC90: > 10 µM

## O=C(Cn1c(CN2CCCCC2)nc2ccccc2c1=O)Nc1ccccc1Oc1ccccc1
  pIC50: < 5.00
  IC90: > 10 µM

## CC(C)(C)c1cc(N2Cc3ccccc3C2=N)cc(C(C)(C)C)c1
  pIC50: < 5.00
  IC90: > 10 µM

## O=C1Nc2ccc(Br)cc2/C1=N\N=C\c1cc([N+](=O)[O-])ccc1OC(F)F
  pIC50: < 5.00
  IC90: > 10 µM

## O=C(Cn1cnc2scc(-c3ccccc3)c2c1=O)Nc1ccc([N+](=O)[O-])cc1
  pIC50: < 5.00
  IC90: > 10 µM

## Cn1ccnc1/C(=N\NC(=O)c1sc2ccccc2c1Cl)c1cccc([N+](=O)[O-])c1
  pIC50: < 5.00
  IC90: > 10 µM

## CCOC(=O)/C(=N\Nc1sc(C(=O)OCC)c(C)c1C(=O)OCC)C(=O)c1ccccc1
  pIC50: 5.12
  IC90: 9.2 µM

## COC(=O)c1occc1CSc1nc(NC(=O)c2ccccc2)c2c(C)c(C)oc2n1
  pIC50: < 5.00
  IC90: > 10 µM

## CN(c1ccccc1)S(=O)(=O)c1cccc(NC(=O)Nc2ccccc2[N+](=O)[O-])c1
  pIC50: < 5.00
  IC90: > 10 µM

## COc1cc(OC)c(C(=O)/C=C/c2cnc(N3CCCC3)nc2)cc1Cl
  pIC50: 5.13
  IC90: > 10 µM

## O=C(CCSCc1cc(Cl)c2c(c1)OCO2)Nc1ccc(Cl)cc1F
  pIC50: < 5.00
  IC90: > 10 µM

## Cc1cc(C)c(N/C=C2/C(=O)N(c3ccccc3Cl)C(=O)c3ccccc32)c(C)c1
  pIC50: < 5.00
  IC90: > 10 µM

## Cc1cc(/C=C(\C#N)c2nc3ccccc3s2)c(C)n1-c1ccc(F)cc1
  pIC50: < 5.00
  IC90: > 10 µM

## CCN(CC)c1ccc(/C=C2\CCC(/C=N/NC(=O)NC3CCCCC3)=C2N2CCOCC2)cc1
  pIC50: < 5.00
  IC90: > 10 µM

## Cc1occc1C(=O)N/N=C/C=C1\N(C)c2ccccc2C1(C)C
  pIC50: < 5.00
  IC90: > 10 µM

## N#CC(C(=O)COC(=O)COc1cc(Cl)c(Cl)cc1Cl)=C1Nc2ccccc2N1
  pIC50: < 5.00
  IC90: > 10 µM

## CCc1c(C#N)c(SCC(=O)c2cc(C)n(-c3ccccc3F)c2C)nc2c1C(=O)CC(C)(C)C2
  pIC50: 5.24
  IC90: > 10 µM

## Cc1cc(=O)n(-c2ccc(C(F)(F)F)cc2[N+](=O)[O-])[nH]1
  pIC50: < 5.00
  IC90: > 10 µM

## COc1ccc(C2CC(c3ccccc3)=NN2C(=O)COc2c(Cl)cc(Cl)c3ccc(C)nc23)cc1 (stereo not given)
  pIC50: < 5.00
  IC90: > 10 µM

## CN(C(=O)CCc1cc(C(C)(C)C)c(O)c(C(C)(C)C)c1)C1CCS(=O)(=O)C1 (stereo not given)
  pIC50: < 5.00
  IC90: > 10 µM

## COC(=O)c1ccc(/C=C/C(=O)OCC(=O)C(C#N)=C2Nc3ccccc3N2)cc1
  pIC50: < 5.00
  IC90: > 10 µM

## CCOC(=O)c1c(C)[nH]c(N=Nc2cccc(C(F)(F)F)c2)c1C
  pIC50: < 5.00
  IC90: > 10 µM

## CCN(C(=O)COC(=O)c1nc(-c2ccccc2)n2c1CCCCC2)c1ccccc1
  pIC50: < 5.00
  IC90: > 10 µM

## CC(OC(=O)c1ccc(C(C)C)cc1)C(=O)Nc1sccc1C(N)=O (stereo not given)
  pIC50: < 5.00
  IC90: > 10 µM

## FC(F)(F)/C(=N\C1(C(Cl)(Cl)Cl)Oc2ccccc2O1)NCc1ccco1
  pIC50: < 5.00
  IC90: > 10 µM

## CC(C)CCn1c(Sc2ccc3nnnn3n2)nc2scc(-c3cccs3)c2c1=O
  pIC50: < 5.00
  IC90: > 10 µM

## CC(Nc1ccc(C(F)(F)F)cc1[N+](=O)[O-])C(=O)Nc1ccccc1C(=O)Nc1cccc(Cl)c1 (stereo not given)
  pIC50: < 5.00
  IC90: > 10 µM

## COC(=O)c1c(-c2cccs2)csc1NC(=O)CSc1cc(C)c2ccccc2n1
  pIC50: < 5.00
  IC90: > 10 µM

## C=CCn1c(SCc2c(C(=O)OCC)sc(N)c2C#N)nnc1-c1ccc(Cl)cc1Cl
  pIC50: < 5.00
  IC90: > 10 µM

Source: ChEMBL document CHEMBL4483862, “Open-source discovery of chemical leads for next-generation chemoprotective antimalarials” (2018)
